{"source": "patent US20250002467A1", "about": "“DESIGN, SYNTHESIS AND MECHANISMS OF ANTICANCER ACTIVITY OF NEW ACETYLATED 5-AMINOSALICYLATE-THIAZOLINONE HYBRID DERIVATIVES” (University of Sharjah, priority 2023, published 2025)", "format_in_all_cases": "cell-based", "key": {"[1]": {"tested_on": "HeLa", "assay": "SRB cytotoxicity assay, HeLa", "from_the_text": "(§1) Eight different cancer cell lines were acquired from the Radiobiology and Experimental Radio Oncology lab, University Medical Center, Hamburg University, Hamburg, Germany. MCF7, MDA-MB-231 (breast cancer), and A549 (lung cancer) cells were maintained in RPMI medium while HCT116 (colon cancer), HepG2 (liver cancer), U87, U373 (glioblastoma), and HeLa (cervical cancer) were maintained in DMEM supplemented with 10% FBS and 1% penicillin/streptomycin (Sigma Aldrich, Missouri, USA). Normal human fibroblast (F180) cells were maintained in DMEM supplemented with 15% FBS. Normal human mammary epithelial cell line (HME1) were maintained in DMEM/F-12 medium supplemented with 10% FBS. All incubations were done at 37° C. in a humidified atmosphere of 5% CO2. All cell lines were authenticated by short tandem repeat (STR) profiling. The CDK4 knockout cells (provided by Dr. Samrein Ahmed, University of Sharjah, United Arab Emirates) were generated by CRISPR-CAS9 technology and were maintained in DMEM supplemented with 10% FBS.\n(§2) The cytotoxic effects of HH32 and HH33 compounds were evaluated at various concentrations ranging from 0.0001 to 100 μM by sulphrhodamine-B (SRB) assay as described previously. The anti-proliferative activity was expressed as growth inhibitory concentration (IC50) values, which were calculated by the sigmoidal dose-response curve fitting method using Graph pad prism 6 software (GraphPad Software, San Diego, CA, USA)."}, "[2]": {"tested_on": "HCT-116", "assay": "SRB cytotoxicity assay, HCT-116", "from_the_text": "as §1, §2"}, "[3]": {"tested_on": "U373", "assay": "SRB cytotoxicity assay, U373", "from_the_text": "as §1, §2"}, "[4]": {"tested_on": "HepG2", "assay": "SRB cytotoxicity assay, HepG2", "from_the_text": "as §1, §2"}, "[5]": {"tested_on": "MCF7, HCT116, HeLa and A549 cells", "assay": "Cell cycle analysis by flow cytometry, four cell lines", "conditions": "for G1 and S phases arrest: four cell lines", "description": "(§3) The effect of the HH32 and HH33 compounds on the distribution of cell cycle at different time points (2, 4, 8, 24, 48, and 72 hours) was analyzed using flow cytometry. Briefly, the cells were harvested and fixed in 70% ethanol for 24 hours at −20° C. The fixed cells were treated with RNAase […] (Sigma Aldrich, Missouri, USA) and stained with propidium iodide […] (Sigma Aldrich, Missouri, USA). The data were acquired using BD Accuri C6 flow cytometer (Becton Dickenson, San Jose, CA, USA) and analysis was done using Flow Jo software (Tree Star, Inc, Ashland, OR, USA)."}, "[6]": {"tested_on": "eight tested cancer cell lines", "assay": "SRB cytotoxicity assay, eight cancer cell lines", "conditions": "for viability of the eight tested cancer cell lines: SRB, 0.0001 to 100 μM; for selectivity index compared with doxorubicin: cancer cell lines versus normal cells", "from_the_text": "as §1, §2"}, "[7]": {"tested_on": "MCF7, HCT-116, HeLa and A549 cells", "assay": "Annexin V/PI apoptosis analysis", "conditions": "for early apoptotic cell population (Annexin V+/PI-): 24 and 48 hours", "description": "The cells were collected at 12, 24 and 48 hours after treatment with […] of HH32 and HH33 compounds. The detection of early and late apoptotic cell death was done using FITC Annexin V Apoptosis Detection Kit (Becton Dickenson, California, USA) according to the manufacturer's protocol. The data were analyzed by BD Accuri C6 flow cytometer (Becton Dickenson, New Jersey, USA)."}, "[8]": {"tested_on": "CDK4 knockout HCT116 cells", "assay": "Sensitivity and cell cycle of CDK4 knockout versus wild-type HCT116", "description": "CRISPR-Cas9 was employed to stablish HCT116 CDK4 KO cells. Ribonucleotide protein (RNP) delivery system for CRISPR technique was utilized. All the reagents were purchased for Thermoscientific company, USA. gRNA was used to target CDK4 genes. Lipofectamine™ CRISPRMAX™ Cas9 Transfection Reagent was used to transfect the cells with the gRNA and Cas9. The genomic cleavage efficiency was assessed by immunoblotting, while a scrambled gRNA, Trueguide gRNA Negative control, was used as a negative control in all the steps to ensure the specificity of the target. […] To generate isolated clones with complete knockout, the mixed pool of cells was diluted 1 cell/[…] liquid medium and then dispersed into 96 wells plate. The individual cells were left to form clones. […]\nas §2\nThe effect of the HH32 and HH33 compounds on the distribution of cell cycle at different time points (2, 4, 8, 24, 48, and 72 hours) was analyzed using flow cytometry. […]"}, "[9]": {"tested_on": "HeLa cells", "assay": "Cell cycle analysis by flow cytometry, HeLa", "conditions": "1 μM, peak at 24 hours, Control 36.9%", "description": "as §3"}}}
{"smiles": "COC(=O)c1cc(NC2=NC(=O)C(=Cc3ccc(C)cc3)S2)ccc1OC(C)=O", "note": "[HH32, Methyl 2-acetoxy-5-[(5-(4-methylbenzylidene)-4 (H)-oxo-1,3-thiazol-2-yl)-amino]benzoate]", "values": [{"measurement": "Selectivity index", "setting": "[1]; F180 versus HeLa", "result": 22.2}, {"measurement": "Selectivity index", "setting": "[1]; HME1 versus HeLa", "result": 44.65}, {"measurement": "IC50", "setting": "[1]; HeLa, SRB, mean ± SEM", "result": "0.6 ± 0.47", "unit": "µM"}, {"measurement": "Selectivity index", "setting": "[2]; F180 versus HCT116", "result": 11.4}, {"measurement": "IC50", "setting": "[2]; HCT-116, SRB, mean ± SEM", "result": "1.17 ± 0.46", "unit": "µM"}, {"measurement": "Selectivity index", "setting": "[2]; HME1 versus HCT116", "result": 22.9}, {"measurement": "Selectivity index", "setting": "[3]; F180 versus U373", "result": 0.45}, {"measurement": "Selectivity index", "setting": "[3]; HME1 versus U373", "result": 0.9}, {"measurement": "IC50", "setting": "[3]; U373, SRB, mean ± SEM", "result": "29.38 ± 0.08", "unit": "µM"}, {"measurement": "Selectivity index", "setting": "[4]; F180 versus HepG2", "result": 5.36}, {"measurement": "Selectivity index", "setting": "[4]; HME1 versus HepG2", "result": 10.8}, {"measurement": "IC50", "setting": "[4]; HepG2, SRB, mean ± SEM", "result": "2.49 ± 0.11", "unit": "µM"}, {"measurement": "G1 and S phases arrest", "setting": "[5]", "result": "no signs"}, {"measurement": "viability of the eight tested cancer cell lines", "setting": "[6]", "result": "remarkable concentration-dependent decrease"}, {"measurement": "selectivity index compared with doxorubicin", "setting": "[6]", "result": "superior in most of cancer cell lines than doxorubicin"}, {"measurement": "late apoptotic/dead cells (Annexin V+/PI+)", "setting": "[7]; HCT-116 cells", "result": "elevated"}, {"measurement": "early apoptotic cell population (Annexin V+/PI-)", "setting": "[7]; four cell lines", "result": "no sign of early apoptosis induction"}]}
{"smiles": "COC(=O)c1cc(NC2=NC(=O)C(=Cc3ccc(N(C)C)cc3)S2)ccc1OC(C)=O", "note": "[HH33, Methyl 2-acetoxy-5-[(5-(4-dimethylaminobenzylidene)-4 (H)-oxo-1,3-thiazol-2-yl)-amino]benzoate]", "values": [{"measurement": "Selectivity index", "setting": "[1]; F180 versus HeLa", "result": 16.3}, {"measurement": "Selectivity index", "setting": "[1]; HME1 versus HeLa", "result": 38.5}, {"measurement": "activity compared with doxorubicin", "setting": "[1]; HeLa cells", "result": "superior activity than doxorubicin"}, {"measurement": "sensitivity and cell cycle distribution, wild-type versus CDK4 knockout cells", "setting": "[8]", "result": "no difference"}, {"measurement": "Selectivity index", "setting": "[2]; F180 versus HCT116", "result": 13.48}, {"measurement": "potency compared with doxorubicin", "setting": "[2]; HCT-116 cells", "result": "nearby equipotent"}, {"measurement": "Selectivity index", "setting": "[2]; HME1 versus HCT116", "result": 31.9}, {"measurement": "Selectivity index", "setting": "[3]; F180 versus U373", "result": 0.17}, {"measurement": "Selectivity index", "setting": "[3]; HME1 versus U373", "result": 0.4}, {"measurement": "Selectivity index", "setting": "[4]; F180 versus HepG2", "result": 10.3}, {"measurement": "Selectivity index", "setting": "[4]; HME1 versus HepG2", "result": 24}, {"measurement": "G2/M phase accumulation", "setting": "[9]", "result": 93.9, "unit": "%"}, {"measurement": "percentage of cancer cells arrested at the G2/M border", "setting": "[5]", "result": "up to 90%"}, {"measurement": "G1 and S phases arrest", "setting": "[5]", "result": "no signs"}, {"measurement": "viability of the eight tested cancer cell lines", "setting": "[6]", "result": "remarkable concentration-dependent decrease"}, {"measurement": "selectivity index compared with doxorubicin", "setting": "[6]", "result": "superior in most of cancer cell lines than doxorubicin"}, {"measurement": "late apoptotic/dead cells (Annexin V+/PI+)", "setting": "[7]; HCT-116 cells", "result": "elevated"}, {"measurement": "early apoptotic cell population (Annexin V+/PI-)", "setting": "[7]; four cell lines", "result": "increased"}, {"measurement": "late apoptotic/dead cells (Annexin V+/PI+)", "setting": "[7]; four cell lines, with increasing concentration", "result": "increased"}]}
